ChEMBL document CHEMBL1201862, “PubChem BioAssay data set” (2004)
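Tested at 5 concentrations; 48 h exposure; 96-well plates; endpoints linearly interpolated, else capped at highest concentration. Here, GI50 denotes the concentration required for 50% inhibition of growth.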 Active and inactive are the calls of the source. No stated cut-off is given here; in the data, active = GI50 up to about 1.1 µM and inactive = higher.

How the values were obtained:
Assay in all cases: NCI tumour cell line growth inhibition, 48 h
CCRF-CEM = tested on: CCRF-CEM
COLO 205 = tested on: COLO 205
HL-60 = tested on: HL-60
HOP-62 = tested on: HOP-62
HT-29 = tested on: HT-29
K562 = tested on: K562
KM12 = tested on: KM12
Malme-3M = tested on: Malme-3M
NCI-H226 = tested on: NCI-H226
NCI-H23 = tested on: NCI-H23
NCI-H460 = tested on: NCI-H460
OVCAR-5 = tested on: OVCAR-5
OVCAR-8 = tested on: OVCAR-8
SK-MEL-2 = tested on: SK-MEL-2
SK-OV-3 = tested on: SK-OV-3
SN12C = tested on: SN12C
SNB-19 = tested on: SNB-19
SNB-75 = tested on: SNB-75
UACC-62 = tested on: UACC-62
UO-31 = tested on: UO-31

Row | SMILES | GI50 (CCRF-CEM) | GI50 (COLO 205) | GI50 (HL-60) | GI50 (HOP-62) | GI50 (HT-29) | GI50 (K562) | GI50 (KM12) | GI50 (Malme-3M) | GI50 (NCI-H226) | GI50 (NCI-H23) | GI50 (NCI-H460) | GI50 (OVCAR-5) | GI50 (OVCAR-8) | GI50 (SK-MEL-2) | GI50 (SK-OV-3) | GI50 (SN12C) | GI50 (SNB-19) | GI50 (SNB-75) | GI50 (UACC-62) | GI50 (UO-31)
1 | COC(=O)c1ccc2c(c1)CCN2C(=O)c1cc2c(cc1Br)OCO2 | 0.404 µM (active) | 0.406 µM (active) | 0.198 µM (active) | 3.87 µM (inactive) | 0.373 µM (active) | 0.19 µM (active) | 0.424 µM (active) | 0.231 µM (active) | 0.277 µM (active) | 1.44 µM (inactive) | 5.81 µM (inactive) | > 50 µM (inactive) | 2.11 µM (inactive) | 0.723 µM (active) | 3.05 µM (inactive) | 1.81 µM (inactive) | 0.439 µM (active) | 0.484 µM (active) | 0.439 µM (active) | 2.01 µM (inactive)
2 | COc1ccc(C23C(=O)c4ccccc4N2O[C@H]2C(=O)N(c4ccccc4)C(=O)[C@H]23)cc1 (stereo not given in full) | > 100 µM (inactive) | > 100 µM (inactive) | > 100 µM (inactive) | > 100 µM (inactive) | > 100 µM (inactive) | > 100 µM (inactive) | > 100 µM (inactive) | > 100 µM (inactive) | > 100 µM (inactive) | > 100 µM (inactive) | > 100 µM (inactive) | > 100 µM (inactive) | > 100 µM (inactive) | > 100 µM (inactive) | > 100 µM (inactive) | > 100 µM (inactive) | > 100 µM (inactive) | > 100 µM (inactive) | > 100 µM (inactive) | > 100 µM (inactive)
3 | COc1cc(Nc2nc3ccc(C(F)(F)F)cc3nc2C(=O)O)cc(OC)c1OC | 41.6 µM (inactive) | 19.8 µM (inactive) | 31.3 µM (inactive) | 18.2 µM (inactive) | 27 µM (inactive) | 17.9 µM (inactive) | 23.6 µM (inactive) | 27.1 µM (inactive) | 21.4 µM (inactive) | 27.8 µM (inactive) | 21.2 µM (inactive) | 36.1 µM (inactive) | 27.7 µM (inactive) | 21.8 µM (inactive) | 29.2 µM (inactive) | 14.4 µM (inactive) | 29.9 µM (inactive) | 46 µM (inactive) | 18.6 µM (inactive) | 19.7 µM (inactive)
4 | O=NN(CCCl)C(=O)NC1CCSc2ccccc21 (stereo not given) | 10.3 µM (inactive) | > 100 µM (inactive) | 23.3 µM (inactive) | 0.776 µM (active) | > 100 µM (inactive) | > 62.4 µM (inactive) | > 100 µM (inactive) | > 100 µM (inactive) | > 100 µM (inactive) | > 100 µM (inactive) | > 69.3 µM (inactive) | > 100 µM (inactive) | > 100 µM (inactive) | > 100 µM (inactive) | > 100 µM (inactive) | > 100 µM (inactive) | > 90.2 µM (inactive) | 87.3 µM (inactive) | 25 µM (inactive) | > 91.2 µM (inactive)
5 | N=C1OC(CN2CCN(c3ccccc3)CC2)CN1C(=S)Nc1ccccc1 (stereo not given) | 37.1 µM (inactive) | > 100 µM (inactive) | 31 µM (inactive) | 45.5 µM (inactive) | 49.7 µM (inactive) | 33.9 µM (inactive) | 39.2 µM (inactive) | 38.9 µM (inactive) | 78.9 µM (inactive) | 50.6 µM (inactive) | 63.1 µM (inactive) | 97.5 µM (inactive) | 99.3 µM (inactive) | 59.2 µM (inactive) | > 100 µM (inactive) | > 100 µM (inactive) | 96.4 µM (inactive) | 31 µM (inactive) | 48.8 µM (inactive) | 37.2 µM (inactive)
6 | C=C1C(=O)C[C@@]23CCC[C@@]12CC(O)C3 (stereo not given in full) | 10.3 µM (inactive) | 21.3 µM (inactive) | 19.5 µM (inactive) | > 63 µM (inactive) | 14.6 µM (inactive) | 24.5 µM (inactive) | 20.8 µM (inactive) | 0.855 µM (active) | 21.2 µM (inactive) | 21.8 µM (inactive) | 20.8 µM (inactive) | 23.4 µM (inactive) | 32.7 µM (inactive) | 24.6 µM (inactive) | 28.1 µM (inactive) | 16.9 µM (inactive) | 85.7 µM (inactive) | 18.4 µM (inactive) | 13.6 µM (inactive) | 37.6 µM (inactive)
7 | [N-]=[N+]=CC(=O)OCC(N)C(=O)O (stereo not given) | 0.222 µM (active) | 0.269 µM (active) | 0.448 µM (active) | 0.582 µM (active) | 0.177 µM (active) | 0.286 µM (active) | 0.406 µM (active) | 54.8 µM (inactive) | 625 µM (inactive) | 1.04 µM (active) | 0.411 µM (active) | 14.6 µM (inactive) | 1.32 µM (inactive) | 3.28 µM (inactive) | 2.42 µM (inactive) | 0.421 µM (active) | 2.88 µM (inactive) | 21.3 µM (inactive) | 1.19 µM (inactive) | 2.61 µM (inactive)
8 | COc1ccc2cc(/C=N/NC(=O)Nc3ccccc3)ccc2c1 | > 100 µM (inactive) | > 100 µM (inactive) | > 100 µM (inactive) | > 100 µM (inactive) | > 100 µM (inactive) | > 100 µM (inactive) | > 100 µM (inactive) | > 100 µM (inactive) | > 100 µM (inactive) | > 100 µM (inactive) | > 100 µM (inactive) | > 100 µM (inactive) | > 100 µM (inactive) | > 100 µM (inactive) | > 100 µM (inactive) | > 100 µM (inactive) | > 100 µM (inactive) | > 100 µM (inactive) | > 100 µM (inactive) | > 100 µM (inactive)
9 | CCCCCCCNC(P(=O)(O)O)P(=O)(O)O | > 100 µM (inactive) | > 100 µM (inactive) | > 100 µM (inactive) | > 100 µM (inactive) | 54.7 µM (inactive) | > 100 µM (inactive) | > 100 µM (inactive) | > 100 µM (inactive) | > 100 µM (inactive) | > 100 µM (inactive) | > 100 µM (inactive) | > 100 µM (inactive) | > 100 µM (inactive) | > 100 µM (inactive) | > 100 µM (inactive) | > 100 µM (inactive) | > 100 µM (inactive) | 8.2 µM (inactive) | > 100 µM (inactive) | > 100 µM (inactive)
